Results taken from patent US9227955B2, “Compound having angiogenesis inhibitory activity, method for preparing same, and pharmaceutical composition comprising same” (Boryung Pharmaceutical Co., Ltd., priority 2011, dated 2016).
Entries after “also recorded” stand apart in the source; their conditions may differ. Marks after values point to notes of the source that are not given here.

Key:
HUVECs [1] = test: BrdU incorporation assay, VEGF-induced cell proliferation in HUVECs; assay type: cell-based, human; details: for inhibition of VEGF-induced proliferation in HUVECs, in words: BrdU assay, text on Tables 7 and 8
Description: A BrdU incorporation assay was carried out to examine whether the proliferation of HUVECs through VEGF-induced DNA synthesis is suppressed by BRN-103. HUVECs grown as in Experimental Example 2 were seeded at a density of 1×10^4 cells/well into 96-well plates. […] Thereafter, DNA synthesis in the cells was fluorescently measured using a BrdU incorporation assay kit (Roche).
Likewise, the cells were treated with various concentrations of Compound 250 (Example 26) given in Table 8, and then with VEGF, as the same manner of that of Compound 103. Intracellular DNA was also quantified, as the same manner of that of Compound 103. For comparison, the cells were not treated (control), or were treated with 10 ng/mL VEGF, alone.

[2] = tested on: ERK (Extracellular signal-regulated kinases); test: VEGF-induced ERK activation in HUVECs (Western blot); assay type: cell-based, human; details: HUVECs pretreated 1 hr, VEGF 10 ng/ml 10 min, FIG. 9
Description: (§1) An examination was made to see the effect of compounds of Chemical Formula I, prepared in the Examples above, on VEGF-induced activation of AKT (serine/threonine protein kinase B)/ERK (Extracellular signal-regulated kinases) and eNOS (endothelial nitric oxide synthase) in HUVECs, as follows (endothelial nitric oxide synthase).
(§2) After 3 min of centrifugation at 4000 rpm to collect the cells, the cell pellet was washed once with PBS (phosphate buffered saline). The cell pellet suspended in a lysis buffer (50 mM HEPES pH 7.0, 250 mM NaCl, 5 mM EDTA, 0.1% Nonidet P-40, 1 mM phenylmethylsulfonyl fluoride and 0.5 mM Na orthovanadate) containing 5 μl/mL of leupeptin and aprotinin, each and the reaction was performed at 4° C. for 20 min. After the cell debris was removed by microcentrifugation, the supernatant was swiftly cooled.
(§3) Protein quantification was carried out using a Bio-Rad protein assay reagent. […]
(§4) For immunoblotting, the membrane was incubated overnight at 4° C. in a blocking solution (5% skim milk), and reacted with a primary antibody for 4 hrs. After 4 washes with Tween 20/Tris-buffered saline (TTBS), the membrane was reacted with a 1:1000 (v/v) dilution of a horseradish peroxidase-conjugated secondary antibody at room temperature for 1 hr, washed three times with TTBS, and visualized by a chemical luminescence method (Amersham Life Science).

HUVECs [3] = test: Wound healing assay, VEGF-induced migration of HUVECs; assay type: cell-based, human; details: for suppression of VEGF-induced migration of HUVECs, in words: wound healing assay, text on Tables 5 and 6
Description: Using a sterile, disposable cell scraper (BD Falcon, Bedford, USA), a monolayer of HUVECs was scraped, and the cells were gently washed with PBS. […] After 24 hours, the cell migration were monitored through the scraped monolayer of the cell and photographed under a microscope equipped with a camera (Canon Powershot640).
Also, Compound 250 (Example 26) was applied at various concentrations shown in Table 6 in the same manner as Compound 103, followed by monitoring and photographing the migration of the cells under the microscope. For comparison, the cells were not treated (control) or were treated with 10 ng/mL VEGF, alone.

HUVECs [4] = test: VEGF-induced tube formation of HUVECs (capillary structure formation assay); assay type: cell-based, human; details: for suppression of VEGF-induced tube formation, in words: Tables 9 and 10
Description: After HUVECs were seeded at a density of 3×10^5 cells/well into Matrigel-coated 48-well plates, HUVECs were with 10 ng/ml VEGF for 4 hrs. The HUVECs where tubes were formed were monitored and photographed under a microscope equipped with a camera to count cells.
HUVECs were also treated with Compound 250 (Example 26) at various concentrations given in Table 10, The HUVECs where tubes were formed were monitored and photographed under a microscope equipped with a camera, like Compound 103.

[5] = Cell viability MTS assay (cytotoxicity); assay type: cell-based; details: human; A-431 cells, 48 hrs incubation; read-out: IC50, MTS assay for cytotoxicity against A-431
Description: A-431 ([…], human, ATCC CRL-1555™) cells grown in DMEM (Dulbeco's Modified Eagle's Medium, Gibco #11885) were seeded at a density of 1×10^4 cells/well into 96-well plates and incubated at 37° C. for 18 hrs under the supply of 5% CO2 until the cells stably adhered to the bottom. […] After incubation for 48 hrs in the presence of the test compound, the cells were assayed for viability.
The cells in each well was added with 21 μl of a mixture of 20:1 (v/v) of an MTS solution [(3-(4,5-dimethylthiazol-2-yl)-5-(3-carboxymethoxyphenyl)-2-(4-sulfophenyl)-2H-tetrazolium, Promega, Cat#65421; 2 mg/ml] and a PMS solution [Phenazine methosulfate, Sigma #P9625; 1 mg/ml], and incubated for 2 hrs, followed by measuring absorbance at 490 nm on a microplate reader (Molecular device, spectraMax M2). Relative to the control (media), viability by drug concentration was determined from the measurements of formazan, and the results are given in Table 2, below.

[6] = tested on: Aortic rings excised from C57BL/6 mice; test: Ex vivo microvessel sprouting assay, mouse aortic rings; details: mouse aortic rings, 0.1, 0.5, 1 μM, 10 ng/ml VEGF 7 days, FIG. 5
Description: Sprouts from margins of the aortic rings were photographed under a microscope equipped with a camera.

[7] = tested on: AKT (serine/threonine protein kinase B); test: VEGF-induced AKT activation in HUVECs (Western blot); assay type: cell-based, human; details: HUVECs pretreated 1 hr, VEGF 10 ng/ml 30 min, FIG. 9
Description: as §1, §2, §3, §4

[8] = tested on: eNOS (endothelial nitric oxide synthase); test: VEGF-induced eNOS activation in HUVECs (Western blot); assay type: cell-based, human; details: HUVECs pretreated 1 hr, VEGF 10 ng/ml 1 hr, FIG. 9
Description: as §1, §2, §3, §4

[9] = tested on: HUVECs (human umbelical vein endothelial cells); test: Transwell assay, VEGF-induced cell migration in HUVECs; assay type: cell-based; details: for suppression of VEGF-induced migration of HUVECs, in words: transwell assay, text on Tables 3 and 4
Description: To examine the inhibitory effect of the compounds obtained in the Examples on VEGF (Vascular endothelial growth factor)-induced cell migration in HUVECs (human umbelical vein endothelial cells), a transwell assay was performed as follows.
HUVECs, provided from ATCC (American Type Culture Collection), were incubated in EGM-2 (Endothelial growth Medium-2 Medium) including 10% FBS, penicillin (100 unit/ml) and 100 μg/ml streptomycin sulfate plus various growth factors at 37° C. in an atmosphere of 5% CO2. After the change of the medium with growth factor-free EBM-2 (Endothelial Basal Medium-2 Medium), the cells were subjected to transwell assay.
After for 24 hours, the cells were fixed for 1 min with ethanol and were stained with a dye. Cell migration was evaluated by counting cells which moved through the pores.
In addition, cells were treated with Compound No. 250 (Example 26) at various concentrations given in Table 3, and assayed for cell migration, as conducted with Compounds 103, 110, 218, 273, 275, 276, 290, 312, 428, 442, and 509. The results were compared with those obtained after non-treatment (no treat) or treatment with 10 ng/mL VEGF.
Results were expressed as average numbers (n=3) of HUVECs which moved cross the membrane. Test results are summarized in Table 3 for compounds 103, 110, 218, 273, 275, 276, 290, 312, 428, 442, and 509, and in Table 4 for compound 250.

[10] = tested on: aortic rings excised from Spague-Dawley rats; test: Ex vivo microvessel sprouting assay, rat aortic rings; details: 10 nM, 50 nM, 100 nM, FIG. 6
Description: Likewise, after the aortic rings excised from six-week-old Spague-Dawley rats were treated with various concentrations (10 nM, 50 nM, 100 nM) of Compound 250 (Example 26) and then with VEGF, Sprouts from margins of the aortic rings were photographed under a microscope equipped with a camera, like Compound 103.

[11] = 1 μM, 10 ng/ml VEGF 24 hrs, n=3

## O=C(Nc1cccc(Cl)c1)c1cccnc1NC1CCN(Cc2ccccc2)CC1 [Compound 103, 2-(1-Benzylpiperidin-4-ylamino)-N-(3-chlorophenyl)nicotinamide]
HUVECs [1]; 1 μM, without VEGF
  BrdU incorporation: 0.7 OD 450 nm
HUVECs [1]
  inhibition of VEGF-induced proliferation in HUVECs, in words: inhibited VEGF-induced proliferation in HUVECs in a dose-dependent manner
HUVECs [1]; VEGF + 0.1 μM, 24 hrs
  BrdU incorporation: 1.0*** OD 450 nm
HUVECs [1]; VEGF + 0.5 μM, 24 hrs
  BrdU incorporation: 0.8*** OD 450 nm
HUVECs [1]; VEGF + 1 μM, 24 hrs
  BrdU incorporation: 0.7*** OD 450 nm
[2]
  expression of p-ERK: did not suppress the expression of p-ERK
HUVECs [3]; VEGF + 0.1 μM, 24 hrs
  Wound closure: 200 µm
HUVECs [3]; VEGF + 0.5 μM, 24 hrs
  Wound closure: 180 µm
HUVECs [3]; VEGF + 1 μM, 24 hrs
  Wound closure: 155 µm
HUVECs [3]
  suppression of VEGF-induced migration of HUVECs, in words: higher efficiency than sunitinib
HUVECs [4]
  suppression of VEGF-induced tube formation, in words: more efficient in the inhibition of tube formation than sunitinib; also recorded: VEGF-induced tube formation was also suppressed
HUVECs [4]; VEGF + 0.1 μM, 4 hrs
  Number of tubes/field: 90** tubes/Field
HUVECs [4]; VEGF + 0.5 μM, 4 hrs
  Number of tubes/field: 80*** tubes/Field
HUVECs [4]; VEGF + 1 μM, 4 hrs
  Number of tubes/field: 60*** tubes/Field
[5]
  IC50 at 48 h: 40.6 µM
[6]
  VEGF-induced aortic sprouting: inhibited VEGF-induced aortic sprouting
[7]
  expression of p-AKT: decreased the expression of p-AKT
[8]
  p-eNOS level: downregualted
[9]; 0.1 μM, 10 ng/ml VEGF 24 hrs, n=3
  No. of migration cells/field: 16*** cells/field
[9]; 0.5 μM, 10 ng/ml VEGF 24 hrs, n=3
  No. of migration cells/field: 12*** cells/field
[9]; [11]
  No. of migration cells/field: 8*** cells/field
[9]
  suppression of VEGF-induced migration of HUVECs, in words: more suppressive than the anticancer agent sunitinib

## CC(c1ncnc(Cl)c1F)N1CCC(Nc2ncccc2C(=O)Nc2cccc(Cl)c2)CC1 (stereo not shown) [Compound 250, 2-{1-[1-(6-chloro-5-fluoropyrimidin-4-yl)ethyl]piperidin-4-ylamino}-N-(3-chlorophenyl)nicotinamide]
HUVECs [1]; 100 nM, without VEGF
  BrdU incorporation: 0.7 ± 0.05 OD 450 nM
HUVECs [1]
  inhibition of VEGF-induced proliferation in HUVECs, in words: inhibited VEGF-induced proliferation in HUVECs
HUVECs [1]; VEGF + 25 nM
  BrdU incorporation: 0.79 ± 0.02 OD 450 nM
HUVECs [1]; VEGF + 50 nM
  BrdU incorporation: 0.75 ± 0.03 OD 450 nM
HUVECs [1]; VEGF + 100 nM
  BrdU incorporation: 0.7 ± 0.05 OD 450 nM
[10]
  VEGF-induced aortic sprouting: inhibited VEGF-induced aortic sprouting
HUVECs [3]; 100 nM, without VEGF
  Wound closure: 125 µm
HUVECs [3]; VEGF + 25 nM
  Wound closure: 210 µm
HUVECs [3]; VEGF + 50 nM
  Wound closure: 165 µm
HUVECs [3]; VEGF + 100 nM
  Wound closure: 120 µm
HUVECs [3]
  suppression of VEGF-induced migration of HUVECs, in words: highly suppresses VEGF-induced migration of HUVECs
HUVECs [4]; 100 nM, without VEGF
  Number of tubes/field: 27 ± 2 tubes/field
HUVECs [4]
  suppression of VEGF-induced tube formation, in words: high suppressive effect on tube formation
HUVECs [4]; VEGF + 25 nM
  Number of tubes/field: 45 ± 6 tubes/field
HUVECs [4]; VEGF + 50 nM
  Number of tubes/field: 35 ± 2 tubes/field
HUVECs [4]; VEGF + 100 nM
  Number of tubes/field: 28 ± 4 tubes/field
[5]
  IC50 at 48 h: 26.1 µM
[9]; 100 nM, without VEGF
  No. of migration cells/field: 4.5 ± 1.11 cells/field
[9]; VEGF + 25 nM
  No. of migration cells/field: 33 ± 2.54 cells/field
[9]; VEGF + 50 nM
  No. of migration cells/field: 20.3 ± 1.08 cells/field
[9]; VEGF + 100 nM
  No. of migration cells/field: 12.5 ± 2.5 cells/field
[9]
  suppression of VEGF-induced migration of HUVECs, in words: remarkable suppressive effect

## CCN(CC)CCNC(=O)c1c(C)[nH]c(/C=C2\C(=O)Nc3ccc(F)cc32)c1C [Sunitinib, sunitinib, reference compound]
HUVECs [1]; VEGF + 1 μM, 24 hrs
  BrdU incorporation: 0.84*** OD 450 nm
HUVECs [3]; VEGF + 1 μM, 24 hrs
  Wound closure: 210 µm
HUVECs [4]; VEGF + 1 μM, 4 hrs
  Number of tubes/field: 100*** tubes/Field
[5]
  IC50 at 48 h: 22 µM
[9]; [11]
  No. of migration cells/field: 16.5*** cells/field
